Assay results published in publication PMC4230943, “Mimicking Hypoxia to Treat Anemia: HIF-Stabilizer BAY 85-3934 (Molidustat) Stimulates Erythropoietin Production without Hypertensive Effects” (PLoS ONE, 2014).

What was measured:
cynomolgus monkeys [1] = assay: 5-day repeat-dose study of plasma EPO response; assay type: in vivo, cynomolgus monkey
Experimental: (§1) Male and female cynomolgus monkeys (2.8–5.6 kg in body weight) were used, which were housed two per cage. Blood samples from conscious cynomolgus monkeys were taken by puncturing a superficial vein. In a 5-day, repeat-dose study of plasma EPO response, BAY 85-3934 was administered at doses of 0.5 mg/kg and 1.5 mg/kg at 0 h, 24 h, 48 h, 72 h, and 96 h. Blood samples were taken at 7 h, 31 h, 55 h, 79 h, 103 h, and 168 h. Erythropoietic parameters were also evaluated after a 2-week treatment period with s.c. administration of rhEPO (100 IU/kg twice weekly at days 1, 4, 8, and 11) and BAY 85-3934 (1.5 mg/kg) once daily.
(§2) EPO was measured in plasma samples taken from rodents using a commercial ELISA kit (R&D Systems), according to the manufacturer’s instructions. Relative plasma EPO levels were given in picograms per milliliter. In cynomolgus monkeys, EPO was measured using a combination anti-human EPO ELISAs (R&D Systems and Roche Diagnostics), with human EPO as a standard. Values were given as units per liter. For determination of plasma prorenin from rats, a commercial ELISA (Oxford Biomedical Research) was used according to the manufacturer’s instructions. Hemoglobin in rodent blood samples was determined on a Cell-Dyn 3700 apparatus (Abbott Diagnostics). BAY 85-3934 plasma concentrations were determined after protein precipitation with acetonitrile/ammonium acetate using an internal standard, followed by separation using HPLC/mass spectrometry.
A multiple-dose study in cynomolgus monkeys was conducted to evaluate whether repeat administration of BAY 85-3934 would result in EPO accumulation and/or adaptation of the EPO response. […] In all groups, EPO concentrations had returned to baseline concentrations 24 h after administration of the study drug. […] Platelet and white blood cell counts were unchanged. With respect to EPO induction, the 0.5 mg/kg dose was determined as the minimal effective dose in this study, although statistical significance versus control animals was not reached in this small and heterogeneous animal cohort.

[2] = tested on: male Wistar rats treated with gentamicin; assay: Gentamicin-induced kidney failure (renal anemia) model; assay type: in vivo, rat
Experimental: Male Wistar rats were treated once daily with gentamicin (Gibco/Invitrogen) at a dose of 100 mg/kg body weight via i.p. injection on 14 consecutive days, [35]. Control animals received injections of an equal volume of 0.9% saline. After gentamicin treatment, PCV was determined and animals were distributed to the vehicle or treatment groups with respect to equal mean PCV. On day 15, BAY 85-3934 was given orally once daily at doses of 1 mg/kg, 2.5 mg/kg, 5.0 mg/kg, and 10.0 mg/kg, five times weekly.
as §2
Total RNA was extracted from shock-frozen cell or tissue samples using the TRIzol method. Integrity of obtained RNA was checked on a Bioanalyzer (Agilent Technologies). For reverse transcription, 1 µg of total RNA was digested with RNase-free DNase I (Gibco) for 15 min at room temperature, and then reverse-transcribed using Promiscript (Promega GmbH) in a total reaction volume of 40 µl according to the standard protocol of the supplier. After inactivation of the enzyme by heating to 65°C for 15 min, the obtained cDNA was diluted to a final volume of 150 µl with double-distilled water, and 4 µl used per PCR reaction. qRT-PCR, including normalization of raw data to cytosolic β-actin, was carried out as described previously. The resulting expression is given in arbitrary units.
The effect of BAY 85-3934 on the induction of endogenous EPO production was evaluated in an animal model of impaired kidney function, the gentamicin-induced kidney failure model. A mean creatinine clearance of 30% of that of untreated animals and high expression levels of several markers of acute and chronic kidney injury were indicative of substantial renal impairment in these animals. […] The mean absolute levels of induction were lower in the gentamicin-treated animals than in the controls.

cynomolgus monkeys [3] = assay: Comparison of BAY 85-3934 with rhEPO (single dose and 14-day repeat dose); assay type: in vivo, cynomolgus monkey
Experimental: as §1, §2
In a further study, the efficacy of oral treatment with BAY 85-3934 was evaluated in comparison with rhEPO. Animals were administered a single dose of rhEPO (100 IU/kg) by s.c. injection or BAY 85-3934 (1.5 mg/kg, oral). After administration of rhEPO, plasma concentrations of rhEPO were more than 8-fold higher than the endogenous EPO levels induced by treatment with BAY 85-3934 (Fig. 3B). The area under the curve (AUC) of rhEPO was more than 6-fold higher than the AUC of endogenous EPO. […] Mean reticulocyte counts were 2-fold higher after treatment with rhEPO than after treatment with BAY 85-3934, but returned to baseline values 8 days after treatment cessation.

[4] = BAY 85-3934 plasma levels after oral administration; assay type: in vivo, rat
Experimental: Male Wistar rats (240–340 g in body weight) were housed with five animals per cage for at least 1 week before experimentation. Blood samples from rats were collected under anesthesia (2% isoflurane in air) by puncturing the retro-orbital vein plexus with a glass capillary. In a repeat-dose, 26-day experiment, animals were administered vehicle or BAY 85-3934 at doses of 0.5 mg/kg, 1.25 mg/kg, 2.5 mg/kg, and 5 mg/kg. PCV was determined at baseline and at weekly intervals after centrifugation in a hematocrit capillary tube (Brand) for 10 min at full speed in a Haemofuge centrifuge (Heraeus). The number of reticulocytes in 5 µl blood was counted after staining with thiazol orange (Becton Dickinson) according to the manufacturer’s instructions by FACS analysis on a BD FACSCalibur system (Becton Dickinson). The efficacy of BAY 85-3934 (2.5 mg/kg, once-daily, oral) was also compared with that of rhEPO (25 IU/kg, 50 IU/kg, and 100 IU/kg, twice-weekly, s.c. injection). The time-course of induction of EPO mRNA expression and plasma EPO was determined at baseline and 0.5 h, 1 h, 2 h, 4 h, 6 h, and 8 h after oral administration of a single dose of BAY 85-3934 (5 mg/kg).
as §2

Q: With `O=c1c(-n2ccnn2)c[nH]n1-c1cc(N2CCOCC2)ncn1` [BAY 85-3934, 2-[6-(morpholin-4-yl)pyrimidin-4-yl]-4-(1H-1,2,3-triazol-1-yl)-1,2-dihydro-3H-pyrazol-3-one] as the molecule, how does the “plasma EPO 7 h after administration” value (cynomolgus monkeys [1]; 1.5 mg/kg oral, all animals) read?
A: The value was “significantly induced”.

Q: And the “time after administration at which EPO had returned to baseline” value (cynomolgus monkeys [1]; 0.5 and 1.5 mg/kg, all groups)?
A: The value was 24 h.

Q: What about the “adaptation of the EPO response after repeated dosing” value (cynomolgus monkeys [1]; once daily for 5 days) of the same molecule?
A: Its value is “no adaptation”.

Q: And the “platelet and white blood cell counts” value (cynomolgus monkeys [1]; once daily for 5 days)?
A: The value was “unchanged”.

Q: What about the “minimal effective dose for EPO induction” value (cynomolgus monkeys [1]; statistical significance versus control not reached) of the same molecule?
A: The value was 0.5 mg/kg.

Q: And the “time after onset of treatment for mean PCV to return to baseline” value ([2]; 2.5 mg/kg)?
A: Its value is ≤ 2 weeks.

Q: What about the “mean PCV” value ([2]; 5 mg/kg and 10 mg/kg, 5 days per week, final values higher than control, p<0.001) of the same molecule?
A: Its value is “prevented the decline in mean PCV”.

Q: And the “kidney EPO mRNA expression” value ([2]; 4 h after oral administration)?
A: The value was “increased dose-dependently”.

Q: And the “plasma EPO levels” value ([2]; 4 h after oral administration)?
A: Its value is “significantly and dose-dependently induced”.

Q: What about the hemoglobin values ([2]; 7 days after the start of treatment) of the same molecule?
A: The hemoglobin values was “significant dose-dependent increase”.

Q: And the reticulocyte counts ([2]; all doses, data not shown)?
A: Its reticulocyte counts is “increase in reticulocyte counts”.

Q: And the “doses giving significant induction of liver EPO mRNA” value ([2]; control group (no gentamicin))?
A: Its value is ≥ 2.5 mg/kg.

Q: What about the “doses giving significant induction of liver EPO mRNA” value ([2]; gentamicin-treated animals) of the same molecule?
A: Its value is ≥ 5 mg/kg.

Q: And the “expression of other HIF target genes in kidney and liver” value ([2]; oral administration)?
A: The value was “no dose-response”.

Q: And the “mean gains of hemoglobin and red blood cells, both treatments compared” value (cynomolgus monkeys [3]; 14 days, rhEPO 100 IU/kg twice weekly s.c., BAY 85-3934 1.5 mg/kg once daily)?
A: The value was “almost completely congruent over time”.

Q: What about the “induced EPO peak concentrations, factor within the normal physiological range” value (cynomolgus monkeys [3]; chronic once-daily administration) of the same molecule?
A: Its value is “approximately 2 fold”.

Q: What about the “fraction of BAY 85-3934 eliminated from the plasma” value ([4]; 6 h after 5 mg/kg oral) of the same molecule?
A: Its value is ~90%.

Q: What about the half-life ([4]; rat, plasma, oral, 5 mg/kg, male Wistar rats) of the same molecule?
A: Its half-life is 3.4 h.

Q: What about the bioavailability ([4]; rat, plasma, po, 5 mg/kg, male Wistar rats) of the same molecule?
A: The bioavailability was ~38%.
